Results taken from the supplement of paper PMC10307832.

Key:
Assay in all cases: relative viability (nuclei count vs DMSO), 5 days (fraction); higher = more cells survive
[1] = compound: C1=CC=C(C(=C1)C2=CC=C(C=C2)C3=CSC4=C3C(=C(C(=O)N4)C#N)O)O + Cc1nc(NC(=O)N2CCC[C@H]2C(N)=O)sc1-c1ccnc(C(C)(C)C(F)(F)F)c1 [Alpelisib] (partner 2 µM)
Outline: (§1)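 Dosing by pin tool came one day after lung cancer cell lines were seeded in 1536-well plates, using either one drug or a fixed anchor-drug dose plus five library-drug doses (not always all listed) in √10 steps. After 5 days, nuclei were counted on 4× images. Relative viability is treated-well nuclei count divided by vehicle-well nuclei count, and values are medians of duplicate plates.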

TGX 221 + Trametinib = compound: CC1=CN2C(=O)C=C(N=C2C(=C1)C(C)NC3=CC=CC=C3)N4CCOCC4 [TGX 221] + CC(=O)Nc1cccc(-n2c(=O)n(C3CC3)c(=O)c3c(Nc4ccc(I)cc4F)n(C)c(=O)c(C)c32)c1 [Trametinib] (partner 0.02 µM)
Outline: as §1

TGX 221 + Vorinostat = compound: CC1=CN2C(=O)C=C(N=C2C(=C1)C(C)NC3=CC=CC=C3)N4CCOCC4 [TGX 221] + O=C(CCCCCCC(=O)Nc1ccccc1)NO [Vorinostat] (partner 1 µM)
Outline: as §1

Ricolinostat + Dasatinib = compound: O=C(CCCCCCNC(=O)c1cnc(N(c2ccccc2)c2ccccc2)nc1)NO [Ricolinostat] + Cc1nc(Nc2ncc(C(=O)Nc3c(C)cccc3Cl)s2)cc(N2CCN(CCO)CC2)n1 [Dasatinib] (partner 0.075 µM)
Outline: as §1

Row | Cell Line | relative viability ([1]; first compound 0.08 µM) | relative viability ([1]; first compound 0.253 µM) | relative viability ([1]; first compound 0.8 µM) | relative viability ([1]; first compound 2.53 µM) | relative viability ([1]; first compound 8 µM) | relative viability (TGX 221 + Trametinib; first compound 0.08 µM) | relative viability (TGX 221 + Trametinib; first compound 0.253 µM) | relative viability (TGX 221 + Trametinib; first compound 0.8 µM) | relative viability (TGX 221 + Trametinib; first compound 2.53 µM) | relative viability (TGX 221 + Trametinib; first compound 8 µM) | relative viability (TGX 221 + Vorinostat; first compound 0.08 µM) | relative viability (TGX 221 + Vorinostat; first compound 0.253 µM) | relative viability (TGX 221 + Vorinostat; first compound 0.8 µM) | relative viability (TGX 221 + Vorinostat; first compound 2.53 µM) | relative viability (TGX 221 + Vorinostat; first compound 8 µM) | relative viability (Ricolinostat + Dasatinib; first compound 0.08 µM) | relative viability (Ricolinostat + Dasatinib; first compound 0.253 µM) | relative viability (Ricolinostat + Dasatinib; first compound 0.8 µM) | relative viability (Ricolinostat + Dasatinib; first compound 2.53 µM)
1 | EKVX | 0.786 | 0.995 | 0.838 | 0.953 | 0.851 | 0.3 | 0.322 | 0.291 | 0.273 | 0.304 | 0.767 | 0.758 | 0.841 | 0.608 | 0.539 | 0.471 | 0.658 | 0.577 | 0.606
2 | NCI-H1993 | 0.684 | 0.624 | 0.69 | 0.594 | 0.655 | 0.797 | 0.508 | 0.526 | 0.507 | 0.529 | 0.821 | 0.611 | 0.742 | 0.788 | 0.724 |  | 0.558 | 0.61 | 0.671
3 | HOP-62 | 0.905 | 0.774 | 0.709 | 1.05 | 0.573 | 0.386 | 0.351 | 0.338 | 0.252 | 0.298 | 0.57 | 0.581 | 0.667 | 0.521 | 0.542 | 0.533 | 0.669 | 0.655 | 0.423
4 | SK-MES-1 | 0.863 | 0.985 | 0.96 | 0.782 | 0.675 | 0.526 | 0.572 | 0.449 | 0.379 | 0.339 | 1.03 | 0.997 | 1.16 | 0.987 | 0.894 | 0.25 | 0.288 | 0.451 | 0.44
5 | NCI-H1755 | 0.861 | 0.957 | 0.941 | 1.03 | 0.883 | 0.792 | 0.743 | 0.646 | 0.647 | 0.628 | 0.677 | 0.681 | 0.775 | 0.718 | 0.667 | 0.368 | 0.386 | 0.472 | 0.449
6 | NCI-H838 | 0.66 | 0.97 | 1.03 | 0.924 | 0.989 | 0.49 | 0.456 | 0.45 | 0.402 | 0.355 | 0.7 | 0.67 | 0.635 | 0.668 | 0.589 |  | 0.318 | 0.287 | 0.452
7 | NCI-H322M | 0.814 | 0.901 | 0.958 | 0.835 | 0.703 | 0.47 | 0.488 | 0.508 | 0.504 | 0.5 | 0.865 | 0.876 | 0.839 | 0.872 | 0.718 |  | 0.275 | 0.26 | 0.255
8 | NCI-H441 |  | 0.773 |  | 0.75 | 0.816 | 0.416 | 0.473 | 0.45 | 0.371 | 0.354 | 0.717 | 0.785 | 0.724 | 0.856 | 0.859 |  | 0.586 | 0.601 | 0.538
9 | EMC-BAC-2 | 0.711 | 0.73 | 0.748 | 0.821 | 0.697 | 0.826 | 1.02 | 0.897 | 0.864 | 0.792 | 0.414 | 0.461 | 0.426 | 0.493 | 0.424 | 0.316 | 0.291 | 0.27 | 0.242
10 | HARA |  | 0.84 | 0.796 | 0.932 | 0.655 | 0.722 | 0.655 | 0.715 | 0.614 | 0.429 | 0.508 | 0.475 | 0.575 | 0.517 | 0.471 | 0.271 | 0.224 | 0.217 | 0.192
11 | NCI-H727 | 0.59 | 0.642 | 0.539 | 0.688 | 0.655 | 0.476 | 0.362 | 0.409 | 0.392 | 0.366 | 1.09 | 1.06 | 1.14 | 1.09 | 1.19 | 0.352 | 0.479 | 0.47 | 0.452
12 | NCI-H1944 | 0.806 | 0.952 | 0.888 | 0.856 | 0.864 |  | 0.367 | 0.327 | 0.401 | 0.32 |  | 0.547 | 0.488 | 0.476 | 0.488 | 0.189 | 0.212 | 0.194 | 0.201
13 | COR-L 105 | 0.859 | 1.04 | 0.93 | 0.802 | 0.953 | 0.501 | 0.431 | 0.482 | 0.43 | 0.419 | 0.906 | 0.884 | 0.869 | 0.726 | 0.82 |  | 0.368 | 0.397 | 0.401
14 | 201T | 1.08 | 1.03 | 1.01 | 1.01 | 1.08 | 0.704 | 0.728 | 0.703 | 0.703 | 0.697 | 1 | 0.956 | 0.902 | 0.927 | 0.879 | 0.471 | 0.571 | 0.603 | 0.498
